One test relates to L-02 cells. As to the kind of experiment: CCK-8 cytotoxicity assay, normal liver L-02. In kind it is cell-based. The conditions noted are these: Homo sapiens, L02; CCK-8, 48 h, normal liver cells, mean ± SD of three experiments; read-out: IC50 L-02. Here is the method: (§1) All cells were cultured in Dulbecco’s Modified Eagle’s Medium (DMEM) (Burlington, MA, USA) or Roswell Park Memorial Institute (RPMI)-1640 medium containing 10% fetal bovine serum and 1% penicillin/streptomycin in an incubator at 37 °C and 5% CO2. […] Cell suspension with a concentration of 8 × 10^4 cells/mL was prepared after cell counting. 100 μL cell suspension was added to each well of the 96-well plate and then placed in an incubator overnight. Most of the derivatives were configured into 80 mM, 20 mM or 4 mM stock solution in DMSO, and the stock solution concentration of BFA and paclitaxel was 0.4 mM. […] The medium in each well was discarded, and 100 μL of gradient diluted derivative solution was added (the control group was added with serum-free medium).

In the next test the test system is HepG2 cells. The test is described as follows: CCK-8 antiproliferative assay, HepG2. The test is classed as cell-based. The conditions noted are these: Homo sapiens, HepG2; CCK-8, 48 h, mean ± SD of three experiments; read-out: IC50 HepG2. The method, then:
as §1
For orientation: Tetrazolium assays rely on reduction of a dye to a coloured formazan, in cell work by metabolically active cells.

The subject of a further test is HeLa cells. As to the kind of experiment: CCK-8 antiproliferative assay, HeLa. The test is classed as cell-based, human. The note with it: for IC50: Homo sapiens, HeLa, CCK-8, 48 h, mean ± SD of three experiments, read-out: IC50 HeLa; for SIHeLa, selectivity index between L-02 and HeLa: SI = IC50(L-02)/IC50(HeLa). The method, then: as §1
The test system of another test is A375 cells. As to the kind of experiment: CCK-8 antiproliferative assay, A375. In kind it is cell-based. The note with it: Homo sapiens, A-375; CCK-8, 48 h, mean ± SD of three experiments; read-out: IC50 A375. The method, then: as §1
Another test deals with A549 cells. The test is described as follows: CCK-8 antiproliferative assay, A549. The test is classed as cell-based. The note with it: Homo sapiens, A549; CCK-8, 48 h, mean ± SD of three experiments; read-out: IC50 A549. Here is the method:
as §1

For another test, the system named is MDA-MB-231 cells. As to the kind of experiment: CCK-8 antiproliferative assay, MDA-MB-231. The test is classed as cell-based. The conditions noted are these: Homo sapiens, MDA-MB-231; CCK-8, 48 h, mean ± SD of three experiments; read-out: IC50 MDA-MB-231. Here is the method: as §1

Where a name gives a salt, the structure may show the parent alone.

A word on the IC50: it is the concentration at which inhibition is half-maximal. Regarding `C[C@H]1CCC/C=C/[C@@H]2C[C@H](OC(=O)/C=C\C(=O)OCC#CCOC(=O)c3ccc(N=C=S)cc3)C[C@H]2[C@H](OC(=O)/C=C\C(=O)OCC#CCOC(=O)c2ccc(N=C=S)cc2)/C=C/C(=O)O1` [Compound 8i, Bis(4-((4-isothiocyanatobenzoyl)oxy)but-2-yn-1-yl) O,O’-((1R,2E,6S,10E,11aS,13S,14aR)-6-methyl-4-oxo-1,6,7,8,9,11a,12,13,14,14a-decahydro-4H-cyclopenta[f][1]oxacyclotridecine-1,13-diyl) dimaleate], the IC50 in the test with L-02 cells is greater than 80 µM; with HepG2 cells, greater than 40 µM; with HeLa cells, greater than 40 µM; with A375 cells, greater than 40 µM; in the test on A549 cells, greater than 40 µM; with MDA-MB-231 cells, greater than 40 µM.
In the case of `C[C@H]1CCC/C=C/[C@@H]2C[C@H](OC(=O)/C=C\C(=O)OCCOCCOC(=O)c3ccc(N=C=S)cc3)C[C@H]2[C@H](OC(=O)/C=C\C(=O)OCCOCCOC(=O)c2ccc(N=C=S)cc2)/C=C/C(=O)O1` [Compound 8j, Bis(2-(2-((4-isothiocyanatobenzoyl)oxy)ethoxy)ethyl) O,O’-((1R,2E,6S,10E,11aS,13S,14aR)-6-methyl-4-oxo-1,6,7,8,9,11a,12,13,14,14a-decahydro-4H-cyclopenta[f][1]oxacyclotridecine-1,13-diyl) dimaleate], the IC50 was 21.27 ± 0.16 µM in the test on L-02 cells; greater than 40 µM in the test on HepG2 cells; 30.6 ± 2.12 µM with HeLa cells; greater than 40 µM in the test on A375 cells; 23.79 ± 0.02 µM in the test with A549 cells; greater than 40 µM in the test on MDA-MB-231 cells. In the test on HeLa cells, the “SIHeLa, selectivity index between L-02 and HeLa” value came out at 0.70.
Consider `C[C@H]1CCC/C=C/[C@@H]2C[C@H](OC(=O)/C=C\C(=O)OCCCCCCOC(=O)c3ccc(N=C=S)cc3)C[C@H]2[C@H](OC(=O)/C=C\C(=O)OCCCCCCOC(=O)c2ccc(N=C=S)cc2)/C=C/C(=O)O1` [Compound 8k, Bis(6-((4-isothiocyanatobenzoyl)oxy)hexyl) O,O’-((1R,2E,6S,10E,11aS,13S,14aR)-6-methyl-4-oxo-1,6,7,8,9,11a,12,13,14,14a-decahydro-4H-cyclopenta[f][1]oxacyclotridecine-1,13-diyl) dimaleate], for which the IC50 in the test on L-02 cells is greater than 80 µM; with HepG2 cells, greater than 40 µM; in the test on HeLa cells, greater than 40 µM; in the test on A375 cells, greater than 40 µM; in the test with A549 cells, greater than 40 µM; in the test on MDA-MB-231 cells, greater than 40 µM.
For the molecule `C[C@H]1CCC/C=C/[C@@H]2C[C@H](O)C[C@H]2[C@H](OC(=O)CCC(=O)OCCOC(=O)c2ccc(N=C=S)cc2)/C=C/C(=O)O1` [Compound 9a, (1R,2E,6S,10E,11aS,13S,14aR)-13-Hydroxy-6-methyl-4-oxo-1,6,7,8,9,11a,12,13,14,14a-decahydro-4H-cyclopenta[f][1]oxacyclotridecin-1-yl (2-((4-isothiocyanatobenzoyl)oxy)ethyl) succinate], the IC50 in the test on L-02 cells was 15.5 ± 1.22 µM; in the test on HepG2 cells it was 5.93 ± 0.03 µM; in the test with HeLa cells, 2.69 ± 0.3 µM; in the test with A375 cells, 2.07 ± 0.09 µM; with A549 cells, 8.29 ± 0.1 µM; with MDA-MB-231 cells, 8.04 ± 0.01 µM. Also, the “SIHeLa, selectivity index between L-02 and HeLa” value in the test on HeLa cells was found to be 5.75.
Turning to `C[C@H]1CCC/C=C/[C@@H]2C[C@H](O)C[C@H]2[C@H](OC(=O)CCC(=O)OCCCCOC(=O)c2ccc(N=C=S)cc2)/C=C/C(=O)O1` [Compound 9b, (1R,2E,6S,10E,11aS,13S,14aR)-13-Hydroxy-6-methyl-4-oxo-1,6,7,8,9,11a,12,13,14,14a-decahydro-4H-cyclopenta[f][1]oxacyclotridecin-1-yl (4-((4-isothiocyanatobenzoyl)oxy)butyl) succinate], the IC50 with L-02 cells was 10.6 ± 0.6 µM; in the test with HepG2 cells, 6.54 ± 0.18 µM; in the test with HeLa cells it was 2.28 ± 0.04 µM; in the test on A375 cells, 2.79 ± 0.25 µM; in the test on A549 cells it was 2.84 ± 0.02 µM; with MDA-MB-231 cells it was 2.23 ± 0.04 µM. Further, the “SIHeLa, selectivity index between L-02 and HeLa” value in the test on HeLa cells is reported as 4.63.
As to `C[C@H]1CCC/C=C/[C@@H]2C[C@H](O)C[C@H]2[C@H](OC(=O)CCC(=O)OCC#CCOC(=O)c2ccc(N=C=S)cc2)/C=C/C(=O)O1` [Compound 9c, (1R,2E,6S,10E,11aS,13S,14aR)-13-Hydroxy-6-methyl-4-oxo-1,6,7,8,9,11a,12,13,14,14a-decahydro-4H-cyclopenta[f][1]oxacyclotridecin-1-yl (4-((4-isothiocyanatobenzoyl)oxy)but-2-yn-1-yl) succinate], the IC50 was determined as 17.4 ± 0.44 µM in the test on L-02 cells; 8.84 ± 0.28 µM in the test with HepG2 cells; 3.63 ± 0.15 µM with HeLa cells; 10.4 ± 0.16 µM in the test with A375 cells; 13.19 ± 0.03 µM with A549 cells; 9.77 ± 0.22 µM in the test with MDA-MB-231 cells. Besides, the “SIHeLa, selectivity index between L-02 and HeLa” value in the test with HeLa cells stood at 4.79.
For the molecule `C[C@H]1CCC/C=C/[C@@H]2C[C@H](O)C[C@H]2[C@H](OC(=O)CCC(=O)OCCOCCOC(=O)c2ccc(N=C=S)cc2)/C=C/C(=O)O1` [Compound 9d, (1R,2E,6S,10E,11aS,13S,14aR)-13-Hydroxy-6-methyl-4-oxo-1,6,7,8,9,11a,12,13,14,14a-decahydro-4H-cyclopenta[f][1]oxacyclotridecin-1-yl (2-(2-((4-isothiocyanatobenzoyl)oxy)ethoxy)ethyl) succinate], the IC50 stood at 9.18 ± 0.13 µM in the test with L-02 cells; 2.34 ± 0.31 µM in the test with HepG2 cells; 0.99 ± 0.02 µM in the test on HeLa cells; 2.93 ± 0.12 µM with A375 cells; 2.85 ± 0.1 µM with A549 cells; 2.05 ± 0.27 µM with MDA-MB-231 cells.
For the molecule `C[C@H]1CCC/C=C/[C@@H]2C[C@H](O)C[C@H]2[C@H](OC(=O)CCC(=O)OCCCCCCOC(=O)c2ccc(N=C=S)cc2)/C=C/C(=O)O1` [Compound 9e, (1R,2E,6S,10E,11aS,13S,14aR)-13-Hydroxy-6-methyl-4-oxo-1,6,7,8,9,11a,12,13,14,14a-decahydro-4H-cyclopenta[f][1]oxacyclotridecin-1-yl (6-((4-isothiocyanatobenzoyl)oxy)hexyl) succinate], the half-maximal inhibitory concentration (IC50) in the test with L-02 cells stood at 7.87 ± 0.33 µM; in the test with HepG2 cells, 5.77 ± 0.07 µM; in the test on HeLa cells, 0.81 ± 0.03 µM; in the test with A375 cells, 3.87 ± 0.35 µM; in the test on A549 cells it was 2.59 ± 0.13 µM; in the test with MDA-MB-231 cells it was 1.56 ± 0.05 µM.
For `C[C@H]1CCC/C=C/[C@@H]2C[C@H](O)C[C@H]2[C@H](OC(=O)CCC(=O)Oc2ccc(OC(=O)c3ccc(N=C=S)cc3)cc2)/C=C/C(=O)O1` [Compound 9f, (1R,2E,6S,10E,11aS,13S,14aR)-13-Hydroxy-6-methyl-4-oxo-1,6,7,8,9,11a,12,13,14,14a-decahydro-4H-cyclopenta[f][1]oxacyclotridecin-1-yl (4-((4-isothiocyanatobenzoyl)oxy)phenyl) succinate], the IC50 in the test on L-02 cells is 25.1 ± 0.82 µM; with HepG2 cells, 27.7 ± 0.47 µM; in the test with HeLa cells, 13.1 ± 0.45 µM; with A375 cells, 21.3 ± 0.33 µM; with A549 cells it was 16.18 ± 0.06 µM; in the test on MDA-MB-231 cells it was 32.1 ± 1.03 µM. In the test with HeLa cells, the “SIHeLa, selectivity index between L-02 and HeLa” value was 1.91.
`C[C@H]1CCC/C=C/[C@@H]2C[C@H](O)C[C@H]2[C@H](OC(=O)/C=C\C(=O)OCCOC(=O)c2ccc(N=C=S)cc2)/C=C/C(=O)O1` [Compound 9g, (1R,2E,6S,10E,11aS,13S,14aR)-13-Hydroxy-6-methyl-4-oxo-1,6,7,8,9,11a,12,13,14,14a-decahydro-4H-cyclopenta[f][1]oxacyclotridecin-1-yl (2-((4-isothiocyanatobenzoyl)oxy)ethyl) maleate]: the IC50 turned out to be 20.9 ± 0.49 µM in the test on L-02 cells; 12.8 ± 0.15 µM with HepG2 cells; 3.63 ± 0.23 µM in the test with HeLa cells; 11.9 ± 0.54 µM in the test with A375 cells; 10.4 ± 0.59 µM with A549 cells; 7.51 ± 0.07 µM in the test with MDA-MB-231 cells. In addition, the “SIHeLa, selectivity index between L-02 and HeLa” value with HeLa cells was determined as 5.75.
`C[C@H]1CCC/C=C/[C@@H]2C[C@H](O)C[C@H]2[C@H](OC(=O)/C=C\C(=O)OCCCCOC(=O)c2ccc(N=C=S)cc2)/C=C/C(=O)O1` [Compound 9h, (1R,2E,6S,10E,11aS,13S,14aR)-13-Hydroxy-6-methyl-4-oxo-1,6,7,8,9,11a,12,13,14,14a-decahydro-4H-cyclopenta[f][1]oxacyclotridecin-1-yl (4-((4-isothiocyanatobenzoyl)oxy)butyl) maleate]: the IC50 in the test on L-02 cells amounted to 27.8 ± 1.39 µM; with HepG2 cells it was 13.27 ± 0.1 µM; in the test with HeLa cells, 9.68 ± 0.24 µM; in the test on A375 cells, 11.2 ± 0.29 µM; in the test on A549 cells, 8.54 ± 0.26 µM; in the test with MDA-MB-231 cells, 5.71 ± 0.2 µM. For the same molecule, the “SIHeLa, selectivity index between L-02 and HeLa” value in the test on HeLa cells is 2.87.
With `C[C@H]1CCC/C=C/[C@@H]2C[C@H](O)C[C@H]2[C@H](OC(=O)/C=C\C(=O)OCC#CCOC(=O)c2ccc(N=C=S)cc2)/C=C/C(=O)O1` [Compound 9i, (1R,2E,6S,10E,11aS,13S,14aR)-13-Hydroxy-6-methyl-4-oxo-1,6,7,8,9,11a,12,13,14,14a-decahydro-4H-cyclopenta[f][1]oxacyclotridecin-1-yl (4-((4-isothiocyanatobenzoyl)oxy)but-2-yn-1-yl) maleate], the IC50 turned out to be 28.14 ± 0.14 µM in the test on L-02 cells; 11.9 ± 0.32 µM in the test on HepG2 cells; 6.59 ± 0.75 µM with HeLa cells; 9.1 ± 0.46 µM in the test on A375 cells; 10.3 ± 0.35 µM in the test with A549 cells; 10 ± 0.26 µM in the test with MDA-MB-231 cells. In addition, the “SIHeLa, selectivity index between L-02 and HeLa” value in the test with HeLa cells stood at 4.27.

For the origin of these results see paper PMC10254530, “Design and Synthesis of Brefeldin A-Isothiocyanate Derivatives with Selectivity and Their Potential for Cervical Cancer Therapy” (Molecules, 2023).
